Usually IC50 stands for the concentration that inhibits the measured activity by half.

The structures appear in SMILES notation. Where two headings read alike, the source gives them in different places. A value given as a limit tells only on which side of the number the result lay.

For one series, the target named is FLT3 (Homo sapiens (Human), UniProt P36888). Nature of the series: FLT3 kinase test (Z'-LYTE). It counts as biochemical. An outline of the steps: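 Z'-LYTE FRET format; kinase reaction started with ATP, run 1 h at room temperature, then 1 h development before stop reagent. Controls without compound, without kinase, and phosphopeptide as 100% phosphorylation reference; values reported in M.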

The target of series [1] is Recombinant human Aurora B (amino acids 1-344) (Homo sapiens (Human), UniProt Q96GD4). Nature of the series: Aurora B kinase test (ADP Glo luminescence). It counts as biochemical. A general note: ADP-Glo first removes unused ATP, then detects ADP through luciferase.
The target in series [2] is Recombinant human Syk (amino acids 342-635), GST-Syk kinase fusion protein (Homo sapiens (Human), UniProt P43405). Nature of the series: Syk kinase test (Kinase Glo luminescence). It counts as biochemical. A general note: In Kinase-Glo more light means more ATP remaining.
Series [3] in a line: Human liver microsomal stability test. The settings on record: human liver microsomes. It counts as in vitro ADME. On the procedure: The metabolic degradation for a specific SYK-inhibitor is performed at 37° C. with pooled human liver microsomes (human liver microsomes are commercially available as “BD UltraPool™” by Corning Life Sciences, Fogostraat 12, 1060 LJ Amsterdam, The Netherlands). The final incubation volume of 100 μl per time point contains TRIS buffer pH 7.6 at RT (0.1 M), magnesium chloride (5 mM), microsomal protein (1 mg/ml) and the test compound at a final concentration of 1 μM.
Following a short preincubation period at 37° C., the reaction is initiated by addition of beta-nicotinamide adenine dinucleotide phosphate in its reduced form (NADPH, 1 mM) and terminated by transfering an aliquot into solvent after different time points. Additionally, the NADPH-independent degradation is monitored in incubations without NADPH, terminated at the last time point.
The quenched (terminated) incubations are then pelleted by centrifugation (10000 g, 5 min).
An aliquot of the supernatant is assayed by LC-MS/MS for the remaining amount of parent compound. The half-life (t1/2 INVITRO) is determined by the slope of the semilogarithmic plot of the concentration-time profile.
The intrinsic clearance (CL_[…]) is calculated by considering the amount of protein in the incubation: CL_[…][μl/min/mg protein]=(Ln 2/(t1/2 INVITRO[min]*protein content[mg/ml]))*1000
The protein content [mg/ml] was determined with the “Bicinchoninic Acid Kit” of Sigma Aldrich (commercially available).
The upscaled intrinsic Clearance (CL_UP_INT) is calculated by considering the liver weight [g liver/kg body weight] and the microsomal recovery [mg protein/g liver]: CL_UP_INT[ml/min/kg]=0.001*CL_[…]*liver weight*microsomal recovery • with microsomal recovery=45 mg protein/g liver • with liver weight=25.7 g liver/kg body weight
The percent hepatic blood flow (% Qh) is finally calculated by considering the human liver blood flow Q [ml/min/kg]: % Qh[%]=((Q*CL_UP_INT)/(Q+CL_UP_INT)/Q)*100 • with liver blood flow (Q)=20.7 ml/min/kg.

In another series the target is Human GSK3beta (Homo sapiens (Human), UniProt P49841). Nature of the series: GSK 3beta kinase test (Z'-LYTE). It counts as biochemical. The settings on record: read-out: IC50 in μM (GSK3beta-Inhibition). On the procedure: Human GSK3beta (expressed and prified from SF21 cells) is obtained from the University Dundee/Scotland (Dr. James Hastie—Dept. of Biochemistry) in 50 mM Tris (pH7.5); 150 mM NaCl; 0.1 mM EGTA, 270 mM Succrose, 0.1% β-mercaptoethanol, 1 mM benzamidine, 0.2 mM PMSF; sequence see below). The enzyme is diluted to 3.56 μM (168 μg/ml) in enzyme dilution buffer and 6 μl aliquots are stored at −80° C.
The activity of GSK3 kinase protein is measured using the Z′-LYTETM assay technology from Invitrogen (# PV3324).
The assay is performed in 384 black plates from Corning (#3676) in a final volume of 10 μl by adding 5 μl of kinase peptide mix and 2.5 μl of compound dilution. The reaction is started by addition of 2.5 μl of the 4×ATP solution.
Positive controls are reaction mixtures containing no test compound; negative controls (blanks) are reaction mixtures containing no ATP. As a further control, the phosphopeptide solution is added to wells without kinase and without ATP (=100% phosphorylation control).
The non inhibited kinase reaction will result in a phosphorylation corresponding to 20%-30% of the phosphorylation control.
The reaction is performed 1 h at room temperature. After 1h 5 μl of the development solution is added. After a further incubation for 1 h at room temperature 5 μl of the stop reagent is added. Finally the plates are read on a Flex Station II 384 (Molecular Devices).
The output text file is evaluated in an “MS-Excel—VB-Makro” and “GraphPadPrism” (Version 5) (GraphPad Software Inc.) is used to calculate the results. Data for the inhibition of GSK3beta are reported in M. data for the inhibition of the protease are reported in % CTL.

The mark [4] stands for this setting: Table 1, read-out: FLT3-inhibition IC50-value.
[5] abbreviates: read-out: IC50 in μM (FLT3-Inhibition).
Setting [6] is: Table 1, read-out: AURB-inhibition IC50-value.
Setting [7] is: read-out: IC50 in μM (AURB-Inhibition).
Setting [8] is: Table 1, read-out: SYK-inhibition IC50-value.
Where [9] appears, read: read-out: IC50 in μM (SYK-Inhibition).
Where [10] appears, read: Table 2a, read-out: IC50 in μM (FLT3-Inhibition).
Setting [11] is: Table 2a, read-out: IC50 in μM (AURB-Inhibition).
The mark [12] stands for this setting: Table 2a, read-out: IC50 in μM (SYK-Inhibition).

Human GSK3beta, sequence (P49841 whole entry): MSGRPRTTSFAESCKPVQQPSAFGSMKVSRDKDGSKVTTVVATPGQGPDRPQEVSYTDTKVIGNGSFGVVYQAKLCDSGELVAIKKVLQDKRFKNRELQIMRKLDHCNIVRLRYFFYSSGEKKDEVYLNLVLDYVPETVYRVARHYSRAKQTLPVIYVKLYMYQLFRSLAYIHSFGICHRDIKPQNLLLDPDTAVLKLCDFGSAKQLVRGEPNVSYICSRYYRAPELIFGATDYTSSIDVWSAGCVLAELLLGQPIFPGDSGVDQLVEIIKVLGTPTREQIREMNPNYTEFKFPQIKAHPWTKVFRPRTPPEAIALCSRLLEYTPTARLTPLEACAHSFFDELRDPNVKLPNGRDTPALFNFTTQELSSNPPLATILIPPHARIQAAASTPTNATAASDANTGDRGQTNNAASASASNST
FLT3, sequence (P36888 27-993): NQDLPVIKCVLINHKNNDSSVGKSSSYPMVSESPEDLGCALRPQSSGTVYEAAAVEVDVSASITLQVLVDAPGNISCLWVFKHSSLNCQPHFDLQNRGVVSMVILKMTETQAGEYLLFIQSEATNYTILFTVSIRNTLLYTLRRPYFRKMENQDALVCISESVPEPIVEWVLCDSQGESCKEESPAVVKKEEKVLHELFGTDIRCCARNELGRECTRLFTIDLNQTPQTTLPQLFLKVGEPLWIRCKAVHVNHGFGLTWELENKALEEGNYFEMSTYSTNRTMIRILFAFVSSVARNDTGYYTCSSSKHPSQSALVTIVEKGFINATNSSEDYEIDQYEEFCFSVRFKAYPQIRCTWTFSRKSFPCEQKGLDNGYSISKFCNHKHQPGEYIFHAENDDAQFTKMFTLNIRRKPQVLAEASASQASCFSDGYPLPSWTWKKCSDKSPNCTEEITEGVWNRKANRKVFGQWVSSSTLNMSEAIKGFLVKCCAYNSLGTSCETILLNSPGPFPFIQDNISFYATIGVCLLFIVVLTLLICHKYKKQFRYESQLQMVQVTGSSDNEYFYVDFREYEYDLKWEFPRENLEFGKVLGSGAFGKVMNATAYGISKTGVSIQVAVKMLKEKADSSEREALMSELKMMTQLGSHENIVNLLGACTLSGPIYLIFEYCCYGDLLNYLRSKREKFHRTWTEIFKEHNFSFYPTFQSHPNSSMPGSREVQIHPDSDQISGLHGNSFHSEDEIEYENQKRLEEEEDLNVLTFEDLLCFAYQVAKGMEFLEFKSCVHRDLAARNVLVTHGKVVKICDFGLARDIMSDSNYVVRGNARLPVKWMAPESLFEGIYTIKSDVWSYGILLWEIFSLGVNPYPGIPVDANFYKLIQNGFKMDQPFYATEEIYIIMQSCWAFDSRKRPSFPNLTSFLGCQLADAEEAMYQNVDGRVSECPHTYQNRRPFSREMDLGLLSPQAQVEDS
Recombinant human Aurora B (amino acids 1-344), sequence (Q96GD4 whole entry, the tested form may be a part): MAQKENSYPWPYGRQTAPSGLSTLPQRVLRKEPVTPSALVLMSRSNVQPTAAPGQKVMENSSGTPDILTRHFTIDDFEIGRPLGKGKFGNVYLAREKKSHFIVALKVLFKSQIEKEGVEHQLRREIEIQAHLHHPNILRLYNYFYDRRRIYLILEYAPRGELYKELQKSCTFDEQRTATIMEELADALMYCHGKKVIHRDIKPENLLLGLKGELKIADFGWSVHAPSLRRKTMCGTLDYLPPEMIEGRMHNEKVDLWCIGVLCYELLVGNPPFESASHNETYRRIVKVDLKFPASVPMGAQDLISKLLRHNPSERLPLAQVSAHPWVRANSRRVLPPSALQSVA

Consider `COc1ccc(-c2cc3nn(C)cc3c(O[C@H](C)[C@H]3CNC(=O)C3)n2)cc1OC` [Example 1, (4R)-4-[(1R)-1-[6-(3,4-Dimethoxyphenyl)-2-methyl-pyrazolo[4,3-c]pyridin-4-yl]oxyethyl]pyrrolidin-2-one], for which the IC50 at FLT3 (setting [4]) is 3.99 µM; on FLT3 (setting [5]), 3.99 µM; in series [1] (setting [6]) it was over 50 µM; in series [1] (setting [7]), over 50 µM; in series [2] (setting [8]), 0.016 µM; in series [2] (setting [9]) it was 0.016 µM. Also, the IC50 at Human GSK3beta was over 10 µM. The “microsomal stability Cl [% Qh]” value in series [3] (Qh = liver blood flow) is under 23 % Qh.

`C[C@@H](Oc1nc(-c2cnn(C(C)(C)C)c2)cc2nn(C)cc12)[C@H]1CNC(=O)C1` [Example 2, (4R)-4-[(1R)-1-[6-(1-tert-Butylpyrazol-4-yl)-2-methyl-pyrazolo[4,3-c]pyridin-4-yl]oxyethyl]pyrrolidin-2-one]: the IC50 at FLT3 (setting [4]) is 14.8 µM; on FLT3 (setting [10]), 14.8 µM; in series [1] (setting [6]), over 50 µM; in series [1] (setting [11]), over 50 µM; in series [2] (setting [8]) it was 0.0144 µM; in series [2] (setting [12]), 0.0144 µM. For the same compound, the 50% inhibitory concentration (IC50) at Human GSK3beta (Table 2a) was over 10 µM. Besides, the “microsomal stability Cl [% Qh]” value in series [3] (test compound 1 μM, Table 2a) is under 23 % Qh.

As for `C[C@@H](Oc1cc(-c2cnn(C(C)(C)C)c2)cc2nn(C)cc12)[C@H]1CNC(=O)C1` [Example 18, (4R)-4-[(1R)-1-[6-(1-tert-butylpyrazol-4-yl)-2-methyl-indazol-4-yl]oxyethyl]pyrrolidin-2-one], the IC50 on FLT3 (setting [4]) was 13.4 µM; on FLT3 (setting [10]), 13.4 µM; in series [1] (setting [6]), over 50 µM; in series [1] (setting [11]), over 50 µM; in series [2] (setting [8]), 0.0046 µM; in series [2] (setting [12]), 0.0046 µM. Further, the IC50 on Human GSK3beta (Table 2a) was over 10 µM. Further, in series [3] (test compound 1 μM, Table 2a), the “microsomal stability Cl [% Qh]” value is recorded as under 23 % Qh.

On to `C[C@@H](Oc1cc(-c2ccc(N3CCN(C)CC3)cc2)cc2nn(C)cc12)[C@H]1CNC(=O)C1` [Example 26, (4R)-4-[(1R)-1-[2-methyl-6-[4-(4-methylpiperazin-1-yl)phenyl]indazol-4-yl]oxyethyl]pyrrolidin-2-one], for which the IC50 on FLT3 (setting [4]) is 0.95 µM; at FLT3 (setting [5]) it was 0.95 µM; in series [1] (setting [6]) it was over 50 µM; in series [1] (setting [7]) it was over 50 µM; in series [2] (setting [8]), 0.0258 µM; in series [2] (setting [9]) it was 0.0258 µM. Moreover, at Human GSK3beta, the IC50 was over 10 µM. Besides, the “microsomal stability Cl [% Qh]” value in series [3] (Qh = liver blood flow) is listed as under 23 % Qh.

On to `CC(C)Oc1ccc(-c2cc(O[C@H](C)[C@H]3CNC(=O)C3)c3cn(C)nc3c2)cn1` [Example 27, (4R)-4-[(1R)-1-[6-(6-isopropoxy-3-pyridyl)-2-methyl-indazol-4-yl]oxyethyl]pyrrolidin-2-one], for which the IC50 is 26.6 µM at FLT3 (setting [4]); 26.6 µM on FLT3 (setting [5]); over 50 µM in series [1] (setting [6]); over 50 µM in series [1] (setting [7]); 0.138 µM in series [2] (setting [8]); 0.138 µM in series [2] (setting [9]). Moreover, the IC50 on Human GSK3beta is over 10 µM. The “microsomal stability Cl [% Qh]” value in series [3] (Qh = liver blood flow) is under 23 % Qh.

`C[C@@H](Oc1cc(-c2ccc3c(cnn3C)c2)cc2nn(C)cc12)[C@H]1CNC(=O)C1` [Example 28, (4R)-4-[(1R)-1-[2-methyl-6-(1-methylindazol-5-yl)indazol-4-yl]oxyethyl]pyrrolidin-2-one]: the IC50 at FLT3 (setting [4]) is 3.69 µM; at FLT3 (setting [5]), 3.69 µM; in series [1] (setting [6]) it was over 50 µM; in series [1] (setting [7]) it was over 50 µM; in series [2] (setting [8]), 0.0335 µM; in series [2] (setting [9]), 0.0335 µM. Further, the IC50 on Human GSK3beta is over 10 µM. The “microsomal stability Cl [% Qh]” value in series [3] (Qh = liver blood flow) is on record as under 23 % Qh.

For the compound `C[C@@H](Oc1cc(-c2ccc3c(c2)c(N)nn3C)cc2nn(C)cc12)[C@H]1CNC(=O)C1` [Example 36, (4R)-4-[(1R)-1-[6-(3-amino-1-methyl-indazol-5-yl)-2-methyl-indazol-4-yl]oxyethyl]pyrrolidin-2-one], the IC50 at FLT3 (setting [4]) turned out to be 2.39 µM; at FLT3 (setting [5]), 2.39 µM; in series [1] (setting [6]), 35.2 µM; in series [1] (setting [7]), 35.2 µM; in series [2] (setting [8]) it was 0.0172 µM; in series [2] (setting [9]), 0.0172 µM. In addition, the IC50 at Human GSK3beta was over 10 µM. For the same compound, the “microsomal stability Cl [% Qh]” value in series [3] (Qh = liver blood flow) is given as under 23 % Qh.

As to `C[C@@H](Oc1cc(-c2ccc(F)cn2)cc2nn(C)cc12)[C@H]1CNC(=O)C1` [Example 41, (4R)-4-[(1R)-1-[6-(5-fluoro-2-pyridyl)-2-methyl-indazol-4-yl]oxyethyl]pyrrolidin-2-one], the IC50 was 42.8 µM at FLT3 (setting [4]); 42.8 µM on FLT3 (setting [5]); over 50 µM in series [1] (setting [6]); over 50 µM in series [1] (setting [7]); 0.164 µM in series [2] (setting [8]); 0.164 µM in series [2] (setting [9]). Moreover, on Human GSK3beta, the IC50 is over 10 µM. Moreover, in series [3] (Qh = liver blood flow), the “microsomal stability Cl [% Qh]” value is reported as under 23 % Qh.

For `C[C@@H](Oc1cc(-c2ccc(C3CCN(C)CC3)cc2)cc2nn(C)cc12)[C@H]1CNC(=O)C1` [Example 42, (4R)-4-[(1R)-1-[2-methyl-6-[4-(1-methyl-4-piperidyl)-phenyl]indazol-4-yl]oxyethyl]-pyrrolidin-2-one], the IC50 was 0.55 µM at FLT3 (setting [4]); 0.55 µM on FLT3 (setting [5]); over 50 µM in series [1] (setting [6]); over 50 µM in series [1] (setting [7]); 0.0167 µM in series [2] (setting [8]); 0.0167 µM in series [2] (setting [9]). Besides, the IC50 on Human GSK3beta is over 10 µM. For the same compound, the “microsomal stability Cl [% Qh]” value in series [3] (Qh = liver blood flow) was under 23 % Qh.

With `C[C@@H](Oc1nc(-c2ccc(C(F)F)nc2)cc2nn(C)cc12)[C@H]1CNC(=O)C1` [Example 51, (4R)-4-[(1R)-1-[6-[6-(difluoromethyl)-3-pyridyl]-2-methyl-pyrazolo[4,3-c]pyridin-4-yl]oxyethyl]pyrrolidin-2-one], the IC50 at FLT3 (setting [4]) came out at 20.9 µM; on FLT3 (setting [5]) it was 20.9 µM; in series [1] (setting [6]), 49.8 µM; in series [1] (setting [7]), 49.8 µM; in series [2] (setting [8]) it was 0.366 µM; in series [2] (setting [9]) it was 0.366 µM. Further, the IC50 on Human GSK3beta is over 10 µM. Further, the “microsomal stability Cl [% Qh]” value in series [3] (Qh = liver blood flow) is reported as under 23 % Qh.

With `COc1cc(-c2cc3nn(C)cc3c(O[C@H](C)[C@H]3CNC(=O)C3)n2)cc(OC)c1OC` [Example 52, (4R)-4-[(1R)-1-[2-methyl-6-(3,4,5-trimethoxyphenyl)-pyrazolo[4,3-c]pyridin-4-yl]oxyethyl]pyrrolidin-2-one], the IC50 on FLT3 (setting [4]) was over 50 µM; at FLT3 (setting [5]), over 50 µM; in series [1] (setting [6]) it was over 50 µM; in series [1] (setting [7]), over 50 µM; in series [2] (setting [8]), 0.0413 µM; in series [2] (setting [9]) it was 0.0413 µM. Also, the IC50 at Human GSK3beta was over 10 µM. Further, the “microsomal stability Cl [% Qh]” value in series [3] (Qh = liver blood flow) was under 23 % Qh.

Source of the values: US9914735B2, “Heteroaryl Syk inhibitors” (Boehringer Ingelheim International GmbH, priority 2014, dated 2018).
